# Assay results: paper PMC8018184, “Evaluation of the Pharmacophoric Role of the O–O Bond in Synthetic Antileishmanial Compounds: Comparison between 1,2-Dioxanes and Tetrahydropyrans” (Journal of Medicinal Chemistry, 2020)
# Key:
# [1] = test system: L. donovani promastigotes; assay: Promastigote growth inhibition in the presence of an iron chelator (DFO or DFP), isobologram; format: cell-based, Leishmania donovani; conditions: for Interaction with the iron chelator DFP (isobologram, FIC): FIC values > 0.5 and < 4; for IC50: Leishmania donovani, no DFO, read-out: IC50 against promastigotes, absence of DFO; for Interaction with the iron chelator DFO (isobologram, ΣFIC): synergism <0.5, antagonism >4.0, else additivity
# Experimental: At first, we determined IC50 and CC50 values of the iron chelator DFO (187 and >400 μM, respectively). Then, the effect of the iron chelator presence on the bioactivity of the two compounds was studied by coincubating 2a and 3a with DFO at different concentrations. The variation of IC50 of the compounds in relation to the different doses of DFO was determined by the alamarBlue assay (Table 3), and the isobole technique was employed to depict the interactions of 2a and 3a with DFO (Figure 6).
# The isobole technique was used for depicting synergistic or antagonistic interaction between the iron chelator and the two compounds on the parasite growth (Figure 6). Combinations are expressed as the sum of the fractional inhibitory concentrations (ΣFIC), and FIC values are defined as synergism (<0.5), antagonism (>4.0), and additivity (no interaction). The strength of synergism (or antagonism) is indicated by the degree of deviation from the line of additivity.
# […]. Each compound was added using a concentration range including the IC50 of each compound. Each experiment was performed in duplicate. The viability of the parasites was determined by the alamarBlue assay. The fractional inhibitory concentration (FIC; FIC = IC50 of the drug in the combination/IC50 of the drug when tested alone) of each compound was calculated and plotted as an isobologram.
# [2] = test system: ROS in L. donovani promastigotes; assay: Evaluation of intracellular ROS levels (H2DCFDA fluorescence); format: cell-based, Leishmania donovani; conditions: for Intracellular ROS levels compared to negative control (untreated promastigotes): compound at its IC50, 24 h, H2DCFDA; for ROS production compared to positive controls: compound at its IC50, H2O2 20 μM, miltefosine 22 μM
# Experimental: We evaluated the ability of our synthetic compounds to generate reactive oxygen species (ROS) in L. donovani promastigotes. We selected the endoperoxide 2a and the tetrahydropyran 3a as model substrates, which were administered to the parasites in the presence of 2,7-dichlorodihydrofluorescein diacetate (H2DCFDA), a live-cell-permeable dye, which is oxidized by ROS, providing a fluorescent compound (DCF) (see Experimental Section for details).[103] Therefore, the resultant fluorescence is a direct measure of the amount of ROS generated.
# To monitor the effect of the compounds on the production of ROS in promastigotes of L. donovani, an oxidant-sensitive green fluorescent dye (2,7-dichlorofluorescein diacetate, H2DCFDA) was used. […] Subsequently, parasitic cells were washed in PBS (pH 7.4), loaded with 10 μM permeant probe H2DCFDA (Sigma, St. Louis, MO, USA), and incubated in the dark for 35 min at 26 °C.[103] H2O2 (20 μM)[124] and miltefosine (22 μM)[125] were used as positive controls. Each experiment was performed in triplicate. Reactive oxygen species (ROS) production was measured as an increase in fluorescence caused by the conversion of nonfluorescent dye to highly fluorescent 2,7-dichlorofluorescein, with an excitation wavelength of 488 nm and an emission wavelength of 530 nm. Plates were read by employing a fluorescence microplate reader Varioskan Flash (Thermo Fisher Scientific Inc.).
smiles,measurement,setting,value
"CCCCC1(CCCC)CO[C@@](C)(OC)[C@@H](CNCCCn2ccnc2)C1 (racemic) [3a, N-((5,5-Dibutyl-2-methoxy-2-methyltetrahydro-2H-pyran-3-yl)methyl)-3-(1H-imidazol-1-yl)propan-1-amine]","Interaction with the iron chelator DFP (isobologram, FIC)",[1],no antagonism or synergism
same,IC50,[1],3.4 ± 0.4 µM
same,"Interaction with the iron chelator DFO (isobologram, ΣFIC)",[1],additive effects
same,Intracellular ROS levels compared to negative control (untreated promastigotes),[2],increase in the intracellular ROS levels
same,ROS production compared to positive controls,[2],higher ROS production when compared to H2O2
CCCCC1(CCCC)C[C@H](CNCCCn2ccnc2)[C@](C)(OC)OO1 [2a],"Interaction with the iron chelator DFP (isobologram, FIC)",[1],no antagonism or synergism
same,IC50,[1],7.5 ± 1.7 µM
same,"Interaction with the iron chelator DFO (isobologram, ΣFIC)",[1],additive effects
same,Intracellular ROS levels compared to negative control (untreated promastigotes),[2],increase in the intracellular ROS levels
same,ROS production compared to positive controls,[2],lower fluorescence intensity when compared to H2O2 and miltefosine
